From ChEMBL document CHEMBL5055619, “Tetrahydrofuran-Based Transient Receptor Potential Ankyrin 1 (TRPA1) Antagonists: Ligand-Based Discovery, Activity in a Rodent Asthma Model, and Mechanism-of-Action via Cryogenic Electron Microscopy” (J Med Chem, 2021)
≈ marks a conversion by molar mass, not a printed value.

How the values were obtained:
[1] = Metabolic stability in rat liver microsomes assessed as clearance by LC/MS-MS analysis; assay type: ADME, Microsome
[2] = Antagonist activity at human TRPA1 expressed in CHO cells assessed as cinnamaldehyde-induced calcium flux measured after 90 mins by FLIPR assay; assay type: cell-based; conditions: 1.5 h
[3] = Metabolic stability in human liver microsomes assessed as clearance by LC/MS-MS analysis; assay type: ADME, Microsome
[4] = Lipophilicity, logD of compound; assay type: physicochemical; conditions: octanol/water
[5] = Kinetic solubility of the compound; assay type: physicochemical; conditions: for solubility kinetic: read-out: Kinetic_solubility
[6] = Unbound Volume of distribution at steady state in rat at 1 mg/kg; assay type: ADME, organism-based; conditions: in vivo
[7] = Metabolic stability in rat hepatocytes assessed as clearance; assay type: ADME, cell-based, Hepatocyte
[8] = target: Transient receptor potential cation channel subfamily A member 1 (Rattus norvegicus) (UniProt Q6RI86); test: In vivo antagonist activity at TRPA1 in AITC-induced rat pain model assessed as nocifensive behaviour at 0.86 ratio of free plasma concentration to IC50 for rat […]; assay type: functional, organism-based; conditions: concentration not given here
Chain of Transient receptor potential cation channel subfamily A member 1 (Rattus norvegicus) (Q6RI86 whole entry): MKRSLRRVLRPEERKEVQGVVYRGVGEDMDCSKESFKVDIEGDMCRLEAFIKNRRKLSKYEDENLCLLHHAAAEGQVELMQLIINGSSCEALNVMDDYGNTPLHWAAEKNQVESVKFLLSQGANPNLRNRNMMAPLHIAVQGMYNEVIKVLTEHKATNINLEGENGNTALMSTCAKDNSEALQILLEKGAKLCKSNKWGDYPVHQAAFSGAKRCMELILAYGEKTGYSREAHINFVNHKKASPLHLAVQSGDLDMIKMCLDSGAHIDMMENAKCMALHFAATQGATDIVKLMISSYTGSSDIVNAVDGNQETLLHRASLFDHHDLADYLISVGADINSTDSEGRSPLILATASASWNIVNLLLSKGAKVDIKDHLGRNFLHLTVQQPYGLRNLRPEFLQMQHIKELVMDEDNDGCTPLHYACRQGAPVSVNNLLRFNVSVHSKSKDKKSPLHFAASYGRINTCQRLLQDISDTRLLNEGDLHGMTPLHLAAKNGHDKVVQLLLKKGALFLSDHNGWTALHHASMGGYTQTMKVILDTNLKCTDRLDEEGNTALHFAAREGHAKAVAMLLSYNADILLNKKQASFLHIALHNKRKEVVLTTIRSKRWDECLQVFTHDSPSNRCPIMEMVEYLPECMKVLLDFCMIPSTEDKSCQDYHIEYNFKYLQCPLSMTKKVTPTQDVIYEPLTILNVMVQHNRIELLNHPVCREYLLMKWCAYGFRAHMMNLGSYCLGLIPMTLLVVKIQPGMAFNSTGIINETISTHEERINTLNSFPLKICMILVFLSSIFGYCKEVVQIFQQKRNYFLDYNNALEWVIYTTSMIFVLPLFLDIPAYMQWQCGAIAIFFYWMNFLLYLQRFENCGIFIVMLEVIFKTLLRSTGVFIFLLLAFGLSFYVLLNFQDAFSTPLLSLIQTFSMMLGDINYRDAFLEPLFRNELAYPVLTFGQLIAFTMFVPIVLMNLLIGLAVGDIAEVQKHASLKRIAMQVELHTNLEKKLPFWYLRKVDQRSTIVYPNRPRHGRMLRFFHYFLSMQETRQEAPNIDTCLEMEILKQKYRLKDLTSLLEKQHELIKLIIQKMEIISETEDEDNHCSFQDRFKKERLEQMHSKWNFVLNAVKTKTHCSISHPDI

[9] = Protein binding in rat plasma; assay type: ADME, cell-free; conditions: read-out: PPB (converted)
[10] = Volume of distribution at steady stare in rat at 1 mg/kg; assay type: ADME, organism-based; conditions: in vivo, read-out: Vdss
[11] = target: Transient receptor potential cation channel subfamily A member 1 (Rattus norvegicus) (UniProt Q6RI86); test: In vivo antagonist activity at TRPA1 in AITC-induced rat pain model assessed as nocifensive behaviour at 2.94 ratio of free plasma concentration to IC50 for rat […]; assay type: functional, organism-based; conditions: concentration not given here
Rattus norvegicus = organism: Rattus norvegicus; test: Antinociceptive activity against AITC-induced rat pain model assessed as nocifensive behaviour by measuring unbound concentration; assay type: functional, organism-based
[12] = Antagonist activity at rat TRPA1 expressed in CHO cells assessed as cinnamaldehyde-induced calcium flux measured after 90 mins by FLIPR assay; assay type: cell-based; conditions: 1.5 h
[13] = target: Transient receptor potential cation channel subfamily A member 1 (Rattus norvegicus) (UniProt Q6RI86); test: In vivo antagonist activity at TRPA1 in AITC-induced rat pain model assessed as nocifensive behaviour at 12.67 ratio of free plasma concentration to IC50 for rat […]; assay type: functional, organism-based; conditions: concentration not given here
[14] = Oral bioavailability in rat at 1 mg/kg; assay type: ADME, organism-based; conditions: in vivo
[15] = Half life in rat at 1 mg/kg; assay type: ADME, organism-based; conditions: in vivo
[16] = Apparent permeability across apical to basolateral side in MDCK cells; assay type: ADME, cell-based, Canis lupus familiaris; conditions: dog, read-out: permeability
[17] = Clearance in rat at 1 mg/kg; assay type: ADME, organism-based; conditions: in vivo
[18] = target: Transient receptor potential cation channel subfamily A member 1 (Rattus norvegicus) (UniProt Q6RI86); test: In vivo antagonist activity at TRPA1 in AITC-induced rat pain model assessed as nocifensive behaviour at 43.69 ratio of free plasma concentration to IC50 for rat […]; assay type: functional, organism-based; conditions: concentration not given here
[19] = Protein binding in human plasma; assay type: ADME, cell-free; conditions: read-out: PPB (converted)
[20] = target: Transient receptor potential cation channel subfamily A member 1 (Rattus norvegicus) (UniProt Q6RI86); test: In vivo antagonist activity at TRPA1 in AITC-induced rat pain model assessed as nocifensive behaviour at 0.17 ratio of free plasma concentration to IC50 for rat […]; assay type: functional, organism-based; conditions: concentration not given here
[21] = target: Transient receptor potential cation channel subfamily A member 1 (Rattus norvegicus) (UniProt Q6RI86); test: In vivo antagonist activity at TRPA1 in AITC-induced rat pain model assessed as nocifensive behaviour at 0.10 ratio of free plasma concentration to IC50 for rat […]; assay type: functional, organism-based; conditions: concentration not given here
[22] = target: Transient receptor potential cation channel subfamily A member 1 (Rattus norvegicus) (UniProt Q6RI86); test: In vivo antagonist activity at TRPA1 in AITC-induced rat pain model assessed as nocifensive behaviour at 3.17 ratio of free plasma concentration to IC50 for rat […]; assay type: functional, organism-based; conditions: concentration not given here
[23] = target: Transient receptor potential cation channel subfamily A member 1 (Rattus norvegicus) (UniProt Q6RI86); test: In vivo antagonist activity at TRPA1 in AITC-induced rat pain model assessed as nocifensive behaviour at 0.53 ratio of free plasma concentration to IC50 for rat […]; assay type: functional, organism-based; conditions: concentration not given here
[24] = Stability in human plasma assessed as compound remaining after 4 hrs; assay type: ADME, cell-free; conditions: read-out: Stability
[25] = Stability in rat plasma assessed as compound remaining after 4 hrs; assay type: ADME, cell-free; conditions: read-out: Stability
[26] = target: Transient receptor potential cation channel subfamily A member 1 (Rattus norvegicus) (UniProt Q6RI86); test: In vivo antagonist activity at TRPA1 in AITC-induced rat pain model assessed as nocifensive behaviour at 0.76 ratio of free plasma concentration to IC50 for rat […]; assay type: functional, organism-based; conditions: concentration not given here
[27] = target: Transient receptor potential cation channel subfamily A member 1 (Rattus norvegicus) (UniProt Q6RI86); test: In vivo antagonist activity at TRPA1 in AITC-induced rat pain model assessed as nocifensive behaviour at 44.77 ratio of free plasma concentration to IC50 for rat […]; assay type: functional, organism-based; conditions: concentration not given here
[28] = target: Transient receptor potential cation channel subfamily A member 1 (Rattus norvegicus) (UniProt Q6RI86); test: In vivo antagonist activity at TRPA1 in AITC-induced rat pain model assessed as nocifensive behaviour at 21.57 ratio of free plasma concentration to IC50 for rat […]; assay type: functional, organism-based; conditions: concentration not given here
[29] = target: Transient receptor potential cation channel subfamily A member 1 (Rattus norvegicus) (UniProt Q6RI86); test: In vivo antagonist activity at TRPA1 in AITC-induced rat pain model assessed as nocifensive behaviour at 8 ratio of free plasma concentration to IC50 for rat […]; assay type: functional, organism-based
[30] = target: Transient receptor potential cation channel subfamily A member 1 (Rattus norvegicus) (UniProt Q6RI86); test: In vivo antagonist activity at TRPA1 in AITC-induced rat pain model assessed as nocifensive behaviour at 0.36 ratio of free plasma concentration to IC50 for rat […]; assay type: functional, organism-based; conditions: concentration not given here
[31] = target: Transient receptor potential cation channel subfamily A member 1 (Rattus norvegicus) (UniProt Q6RI86); test: In vivo antagonist activity at TRPA1 in AITC-induced rat pain model assessed as nocifensive behaviour at 4.45 ratio of free plasma concentration to IC50 for rat […]; assay type: functional, organism-based; conditions: concentration not given here
[32] = target: Transient receptor potential cation channel subfamily A member 1 (Rattus norvegicus) (UniProt Q6RI86); test: In vivo antagonist activity at TRPA1 in AITC-induced rat pain model assessed as nocifensive behaviour at 1.21 ratio of free plasma concentration to IC50 for rat […]; assay type: functional, organism-based; conditions: concentration not given here
[33] = target: Transient receptor potential cation channel subfamily A member 1 (Rattus norvegicus) (UniProt Q6RI86); test: In vivo antagonist activity at TRPA1 in AITC-induced rat pain model assessed as nocifensive behaviour at 2.97 ratio of free plasma concentration to IC50 for rat […]; assay type: functional, organism-based; conditions: concentration not given here

| CLhep predicted [1] [mL/min/kg] | IC50 [2] [nM] | CLhep predicted [3] [mL/min/kg] | logD [4] | solubility kinetic [5] [µM] | Compound | further results |
| --- | --- | --- | --- | --- | --- | --- |
| 44 | 14 | 16 | 1.3 |  | Cn1cnc2ncn(Cc3nn(CCCOc4cccc(Cl)c4)c(=O)o3)c(=O)c21 |  |
|  | 1.9 |  | 2.7 | 1.4 (≈ 0.541 µg/mL) | Cn1cnc2ncn(Cc3nc([C@H]4[C@@H]5C=C(c6ccccc6)C[C@@H]54)no3)c(=O)c21 |  |
|  | 32 |  | 2.6 | < 1 | Cn1cnc2ncn(Cc3nc([C@@H]4[C@@H]5Cc6c(Cl)cccc6[C@@H]54)no3)c(=O)c21 |  |
|  | 25 |  | 1.8 | 97 (≈ 41.2 µg/mL) | Cn1cnc2ncn(Cc3nc([C@H]4[C@@H]5CN(c6cc(Cl)ccn6)C[C@@H]54)no3)c(=O)c21 | Vduss [6]: 20.7 L/kg; CLhep predicted [7]: 36 mL/min/kg; inhibition [8]: 59%; fraction unbound [9]: 0.087; Vd [10]: 1.8 L/kg; inhibition [11]: 64%; EC50 (Rattus norvegicus): 220 nM; IC50 [12]: 18 nM; inhibition [13]: 48%; bioavailability [14]: 39%; half-life [15]: 1.8 h; Papp A→B [16]: 17.3 ×10⁻⁶ cm/s; clearance [17]: 12 mL/min/kg; inhibition [18]: 94%; fraction unbound [19]: 0.07 |
| 34 | 4600 | 11 | 1.3 |  | Cn1cnc2ncn(Cc3nn(CCOc4cccc(Cl)c4)c(=O)o3)c(=O)c21 |  |
| 24 | 410 | 8 | 1.8 |  | Cn1cnc2ncn(Cc3nn([C@@H]4CC[C@@H](Oc5cccc(F)c5)C4)c(=O)o3)c(=O)c21 |  |
|  | 1900 |  | 2.7 | 54 (≈ 21 µg/mL) | Cn1cnc2ncn(Cc3nc([C@H]4[C@@H]5C[C@H](c6ccccc6)C[C@@H]54)no3)c(=O)c21 |  |
| 32 | 8.1 | 15 | 3 | 13 (≈ 5.51 µg/mL) | Cc1cnn2ncn(Cc3nc([C@H]4[C@@H]5CN(c6cccc(Cl)c6)C[C@@H]54)no3)c(=O)c12 | inhibition [20]: 36%; Vduss [6]: 140 L/kg; CLhep predicted [7]: 43 mL/min/kg; inhibition [21]: 30%; fraction unbound [9]: 0.02; Vd [10]: 2.8 L/kg; EC50 (Rattus norvegicus): 6.2 nM; IC50 [12]: 8.2 nM; inhibition [22]: 87%; bioavailability [14]: 32%; half-life [15]: 2.5 h; Papp A→B [16]: 20.7 ×10⁻⁶ cm/s; clearance [17]: 15 mL/min/kg; inhibition [23]: 63%; fraction unbound [19]: 0.009 |
| 35 | 100 | 12 | 1.9 |  | Cn1cnc2ncn(Cc3nc(CCc4ccc(Cl)cc4)no3)c(=O)c21 | IC50 [12]: 80 nM |
| 11 | 7.3 | 6 | 2.2 |  | Cn1cnc2ncn(Cc3nn([C@H]4C[C@H](Oc5cccc(Cl)c5)C4)c(=O)o3)c(=O)c21 |  |
| 9 | 7.6 | 4.3 |  |  | Cn1cnc2ncn(Cc3nc([C@@H]4CO[C@@H](c5ccc(F)cc5)C4)no3)c(=O)c21 |  |
| 19 | > 20000 | 4.3 | 2.6 |  | Cn1cnc2ncn(Cc3nn([C@H]4CC[C@H](c5ccc(Cl)cc5)CC4)c(=O)o3)c(=O)c21 |  |
| 23 | 2 | 9.5 | 1.6 |  | Cn1cnc2ncn(Cc3nn([C@@H]4CO[C@@H](c5ccc(Cl)cc5)C4)c(=O)o3)c(=O)c21 | remaining at 4 h [24]: 76%; remaining at 4 h [25]: 61% |
| 27 | 50 | 14 | 2.6 |  | Cc1ncn2ncn(Cc3nc([C@H]4[C@@H]5CN(c6cccc(Cl)c6)C[C@@H]54)no3)c(=O)c12 |  |
| 27 | 54 | 14 | 2.7 |  | O=c1c2cccnc2cnn1Cc1nc([C@H]2[C@@H]3CN(c4cc(Cl)ccn4)C[C@@H]32)no1 |  |
| 28 | 20 | 5.6 | 1.2 | 120 (≈ 48.6 µg/mL) | Cn1cnc2ncn(Cc3nn(C[C@H](F)c4ccc(Cl)cc4)c(=O)o3)c(=O)c21 | Vduss [6]: 3.14 L/kg; CLhep predicted [7]: 24 mL/min/kg; Vd [10]: 1.3 L/kg; inhibition [26]: 20%; EC50 (Rattus norvegicus): 390 nM; IC50 [12]: 18 nM; inhibition [27]: 100%; inhibition [28]: 37%; bioavailability [14]: 53%; inhibition [29]: 20%; half-life [15]: 1.4 h; Papp A→B [16]: 9 ×10⁻⁶ cm/s; clearance [17]: 17 mL/min/kg; fraction unbound [19]: 0.334 |
| 36 | 9.6 | 12 | 2.4 |  | Cn1cnc2ncn(Cc3nn([C@@H]4CC[C@@H](c5ccc(Cl)cc5)C4)c(=O)o3)c(=O)c21 |  |
|  | 2.9 |  | 2.9 |  | Cn1cnc2ncn(Cc3nc([C@H]4[C@@H]5CN(c6cccc(Cl)c6)C[C@@H]54)no3)c(=O)c21 | Vduss [6]: 128 L/kg; CLhep predicted [7]: 35 mL/min/kg; fraction unbound [9]: 0.018; Kinetic_solubility [5]: 97 µM; Vd [10]: 2.3 L/kg; EC50 (Rattus norvegicus): 7.9 nM; IC50 [12]: 7.9 nM; inhibition [30]: 12%; inhibition [31]: 99%; inhibition [32]: 64%; bioavailability [14]: 20%; half-life [15]: 6.4 h; Papp A→B [16]: 15.5 ×10⁻⁶ cm/s; clearance [17]: 4.5 mL/min/kg; inhibition [33]: 99%; fraction unbound [19]: 0.011 |
| 13 | 75 | 10 | 2.4 |  | O=c1c2cccnc2ncn1Cc1nc([C@H]2[C@@H]3CN(c4cc(Cl)ccn4)C[C@@H]32)no1 |  |
